For assay [1], the target named is T2R38 subtype (bitter taste receptor) (Homo sapiens, UniProt P59533, A49P/I296V). To be noted: Gα-T2R38 stable expression cell line, FIG. 18. Here is the method:
A Gα-T2R38 expression vector comprising a gene encoding a T2R38 subtype (bitter taste receptor) instead of the gene encoding T2R16 of Gα-T2R16 in Examples 1 and 2 was prepared, and thus a stable expression cell line was prepared by the same method as in Examples 1 and 2.
Subsequently, using the same method as in Example 3, the response to a known T2R38 agonist, 6-n-propylthiouracil (1000 μM, 300 μM), was measured. As a control, a cell line (HEK293T) not incorporating any Gα-T2R38 expression vector was used.

For the next assay, the target named is T1, T2R40 (Homo sapiens, UniProt P59535).
T1 construct: expressed in transfected cells
Put plainly: Response of Gα-T2R40 stable expression cell line to agonist (Fluo-8 calcium fluorescence). The format is cell-based. The following applies: Gα-T2R40 compared with T2R40-Gα; agonist 100 μM or 300 μM; FIG. 3. Here is the method: (§1) Specifically, by the same method as in Example 1 and Example 2, a Gα-T2R40 stable expression cell line (containing Gα16/Gαgust43-IRES-ssr/T2R40N5) and a Gα-T2R43 stable expression cell line (containing Gα16/Gαgust43-IRES-ssr/T2R43/V5) were prepared.
(§2) The Gα-T2R40 stable expression cell line and the Gα-T2R43 stable expression cell line were prepared by the same method as in Example 2. […] The results are depicted in FIG. 3.

The target in assay [2] is T2, olfactory receptor (OR3A1) (Homo sapiens, UniProt P47881).
T2 construct: N-terminal 21 amino acids of human rhodopsin (Rho); expressed in transfected cells; host or cells: HEK293T, transient, pcDNA vectors
T2 sequence (P47881 2-315 limits assumed): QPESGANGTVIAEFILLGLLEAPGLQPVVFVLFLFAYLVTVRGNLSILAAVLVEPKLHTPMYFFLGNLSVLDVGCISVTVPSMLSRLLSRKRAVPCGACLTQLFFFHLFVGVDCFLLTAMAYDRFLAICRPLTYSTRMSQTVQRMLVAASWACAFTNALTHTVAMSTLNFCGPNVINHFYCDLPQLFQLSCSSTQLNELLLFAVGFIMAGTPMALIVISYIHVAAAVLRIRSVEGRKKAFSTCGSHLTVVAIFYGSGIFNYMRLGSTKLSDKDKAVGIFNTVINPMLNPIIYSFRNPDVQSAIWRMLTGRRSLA
Kind of assay: cAMP response in cells transiently expressing olfactory receptor (cAMP-GloMax luminescence). The assay is classed as cell-based. The following applies: FIG. 20. How it is done:
Genes encoding Rho-OR3A1, in which N-terminal 21 amino acids (Rho) of human rhodopsin had been added to the N-terminus of OR3A1, and Gαolf were introduced together with IRES into pcDNA vectors by the same method as in Example 1, thereby preparing expression vectors, OR3A1-Gαolf and Gαolf-OR3A1. Using these expression vectors, transiently expressing HEK293T cells were prepared by the same method as in Example 4. As a control, HEK293T cells prepared by separate introduction of each gene of OR3A1 and Gαolf into pcDNA and then double-gene transfer thereof were used.
Next, helional, a known agonist for OR3A1, was added onto the prepared cells (100 μM, 30 μM). The amount of cAMP produced in association with the response of OR3A1 20 minutes after the addition of helional was detected by luminescence measurement using a cAMP-GloMax assay kit (Promega).

A further assay deals with T3, T2R43 (Homo sapiens, UniProt P59537, H212R/W35S).
T3 construct: expressed in transfected cells
T3 sequence (P59537 1-309 W35S/H212R): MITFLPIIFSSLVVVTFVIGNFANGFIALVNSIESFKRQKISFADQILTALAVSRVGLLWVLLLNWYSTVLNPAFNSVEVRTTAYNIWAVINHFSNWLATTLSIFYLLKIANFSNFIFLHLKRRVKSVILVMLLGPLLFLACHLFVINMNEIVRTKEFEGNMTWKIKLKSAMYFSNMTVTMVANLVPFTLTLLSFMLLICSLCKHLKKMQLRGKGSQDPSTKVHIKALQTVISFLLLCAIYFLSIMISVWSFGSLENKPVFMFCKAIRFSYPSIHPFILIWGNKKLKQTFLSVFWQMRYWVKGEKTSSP
Put plainly: Response of Gα-T2R43 stable expression cell line to agonist (Fluo-8 calcium fluorescence). The following applies: Gα-T2R43 compared with T2R43-Gα; agonist 100 μM or 300 μM; FIG. 3. The format is cell-based. How it is done: as §1, §2

Assay [3] deals with T4, human bitter taste receptor (T2R16) (Homo sapiens, UniProt Q9NYV7).
T4 construct: N-terminal 45 amino acids of rat somatostatin receptor 3 (ssr3); expressed in transfected cells
T4 sequence (Q9NYV7 1-291): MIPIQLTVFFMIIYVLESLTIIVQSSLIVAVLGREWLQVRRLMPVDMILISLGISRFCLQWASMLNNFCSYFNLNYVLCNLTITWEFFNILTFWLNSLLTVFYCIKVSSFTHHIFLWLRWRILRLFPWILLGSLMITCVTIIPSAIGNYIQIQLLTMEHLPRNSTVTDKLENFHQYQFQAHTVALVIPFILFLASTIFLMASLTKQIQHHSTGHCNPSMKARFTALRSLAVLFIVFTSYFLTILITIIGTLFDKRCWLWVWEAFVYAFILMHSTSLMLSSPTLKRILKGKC
Kind of assay: Response of T2R16 stable expression cell line to bitter substance (Fluo-8 calcium fluorescence). To be noted: salicin 10, 3, 1, 0.3 or 0.1 mM, FIG. 2. The format is cell-based. How it is done:
Specifically, into 1×10^6 cells of the human embryonic kidney cell line HEK293T (obtained from RIKEN) seeded in a culture vessel, 5 μg of each of the Gα-T2R16 and T2R16-Gα plasmid vectors prepared in Example 1 was introduced through the use of lipofectamine (registered trademark) 3000 (Thermo Fisher Scientific Inc.). After 48 hours of culture, drug resistance screening was performed by adding 100 μg/mL hygromycin B to the medium and then culturing for about 15 days. Cells that had acquired drug resistance were cloned by seeding these cells in each well of a 96-well plate at one cell per well. After about 10 days of culture, a stable expression cell line was obtained.
The T2R16 stable expression cell line prepared based on the method described in Example 2 was seeded at 2×10^4 cells/well in a 96-well plate. The culture media for cells contained a green fluorescent calcium indicator Fluo-8 (registered trademark) (AAT Bioquest, Inc.), and the uptake of Fluo-8 into the cell lines was examined. Fluo-8 (registered trademark) is suitable for detection of intracellular calcium dynamics and is an indicator of GPCR activity.
Cells incorporating Fluo-8 (registered trademark) were excited at 490 nm and the fluorescence intensity at 514 nm was measured. […] The results are depicted in FIG. 2.

Assay [4] addresses T5, T2R16 (Homo sapiens, UniProt Q9NYV7).
T5 construct: expressed in transfected cells
T5 sequence (Q9NYV7 1-291): T4 sequence (Q9NYV7 1-291)
Kind of assay: Response of T2R16 transiently expressing cells to bitter substance. The assay is classed as cell-based. The following applies: transient Gα-T2R16 in HEK293T compared with T2R16-Gα, co-transfection and Gα stable; FIG. 4. Here is the method:
Into HEK293T seeded at 2×10^4 in a 96-well plate, 0.1 μg of each of the Gα-T2R16 and the T2R16-Gα plasmid vectors was introduced using lipofectamine (registered trademark) 3000. After 30 hours of culture, response intensity to salicin was measured using the same technique as in Example 3 (1) (maximum fluorescence intensity during 40 seconds after the addition of salicin). Note that drug resistance screening with hygromycin B as in Example 2 was not performed (transiently expressing cells).
Furthermore, as a comparative example, the following cells were also prepared other than T2R16-Gα expressing cells, and then the response to salicin was measured:
cells (cotransfection), prepared by simultaneous gene transfer of a total of 0.1 μg of a Gα16/Gαgust43gust expression vector and a ssr-T2R16-V5 expression vector comprising a Gα16/Gαgust43 expression gene and a ssr-T2R16-V5 expression gene, respectively, via incorporation thereof into pcDNA3.1 Hygro(+) vectors for transient expression of the genes; and
cells (Gα stable), prepared by the gene transfer of 0.1 μg of a ssr-T2R16-V5 expression vector into a Gα16/Gαgust43 stable expression cell line (subjected in advance to drug resistance screening using hygromycin B) prepared by the same technique as in Example 2 for transient expression of the genes.

The target of assay [5] is T5, T2R16. Put plainly: Response intensity before and after cryopreservation of T2R16 stable expression cell line. The format is cell-based. The following applies: FIG. 7. How it is done:
Gα-T2R16 in this example was prepared in the same manner as in the case of the Gα-T2R16 stable expression cell line in Example 2, but pEAK10 (Edge biosystem, Inc.) was used as an expression vector and “ssr/T2R16” (without V5) was inserted instead of “ssr/T2R16/V5”. Further, drug resistance screening was performed with 1 μg/mL puromycin instead of hygromycin B.
As a comparative example, into the Gα16/Gαgust43 stable expression cell line (subjected in advance to drug resistance screening with puromycin) prepared using the same technique as in Example 2, 5 μg of ssr-T2R16 expression vector was introduced and then drug resistance screening was performed using puromycin. The thus prepared stable expression cell line (Double stable) stably expressing Gα16/Gαgust43+T2R16 was used.
Before and after cryopreservation of the cell line, the response intensity to salicin (1 or 0.1 mM) was examined in the same manner as in Example 3. For cryopreservation, CELLBANKER (Nippon Zenyaku Kogyo Co., Ltd.) was used, and cells were stored under liquid nitrogen for 1 month. The temperature for the cryopreserved cells was brought back to normal temperature, cells were passaged at least twice, and then the response intensity after cryopreservation was measured. The results are depicted in FIG. 7.

Structures are written as SMILES. Like-named read-outs stand apart in the source and are kept apart here. Some results are limits rather than exact numbers.

T2R38 subtype (bitter taste receptor), sequence (P59533 whole entry A49P/I296V): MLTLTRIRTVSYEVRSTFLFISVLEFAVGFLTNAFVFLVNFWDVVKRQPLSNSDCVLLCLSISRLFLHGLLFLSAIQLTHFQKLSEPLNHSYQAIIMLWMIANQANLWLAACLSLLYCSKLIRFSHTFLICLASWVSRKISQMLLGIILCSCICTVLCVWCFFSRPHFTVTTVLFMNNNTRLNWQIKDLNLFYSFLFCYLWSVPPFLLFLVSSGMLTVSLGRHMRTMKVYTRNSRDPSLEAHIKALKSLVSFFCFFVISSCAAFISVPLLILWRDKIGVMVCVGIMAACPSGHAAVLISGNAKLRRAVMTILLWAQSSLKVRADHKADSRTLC
T1 sequence (P59535 whole entry): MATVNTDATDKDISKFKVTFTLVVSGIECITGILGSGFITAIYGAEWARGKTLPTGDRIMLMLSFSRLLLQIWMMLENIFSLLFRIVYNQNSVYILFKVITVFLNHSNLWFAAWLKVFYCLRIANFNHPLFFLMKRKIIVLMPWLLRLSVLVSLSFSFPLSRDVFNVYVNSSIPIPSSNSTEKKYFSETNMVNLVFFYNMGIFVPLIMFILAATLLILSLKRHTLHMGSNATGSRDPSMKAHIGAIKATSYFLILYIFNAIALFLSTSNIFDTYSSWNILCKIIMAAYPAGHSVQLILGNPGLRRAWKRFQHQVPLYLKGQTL

For `CCCc1cc(=O)[nH]c(=S)[nH]1` [6-n-propylthiouracil], the “response to T2R38 agonist” value in assay [1] (300 μM) and in assay [1] (1000 μM) was “exhibited” each time.
In the case of `OC(CCCN1CCCCC1)(c1ccccc1)c1ccccc1` [diphenydol], the “response intensity of T2R40 to the agonist” value at T2R40 is “higher response intensity”.
`CC(C=O)Cc1ccc2c(c1)OCO2` (centres unmarked) [helional]: the “amount of cAMP produced in association with the response of OR3A1” value in assay [2] (HEK293T cells with Gαolf-OR3A1 expression vector, 100 μM helional, 20 minutes after addition) is given as “increase in cAMP”; in assay [2] (HEK293T cells with OR3A1-Gαolf expression vector, helional 100 μM, 30 μM, 20 minutes), “no response”; in assay [2] (HEK293T cells with OR3A1 and Gαolf genes introduced separately, helional 100 μM, 30 μM, 20 minutes) it was “no response”.
On to `C=C[C@H]1C[N@@]2CC[C@H]1C[C@H]2[C@H](O)c1ccnc2ccc(OC)cc12` [quinine], for which the “response intensity of T2R43 to the agonist” value on T2R43 was “higher response intensity”.
Turning to `OCc1ccccc1O[C@@H]1O[C@H](CO)[C@@H](O)[C@H](O)[C@H]1O` [salicin], the “response intensity of T2R16 to the agonist (increase rate of maximum fluorescence intensity)” value in assay [3] (HEK293T stable cell line containing the Gα-T2R16 plasmid) was “exhibited responses”; in assay [3] (cell line containing the comparative T2R16-Gα plasmid), “almost no response”. Further, at T2R16 [4], the “response intensity to salicin” value is “response intensity higher”. Further, the “ratio of response intensity after freezing/response intensity before freezing” value on T2R16 [5] (Gα-T2R16 stable expression cell line (pEAK10), salicin 0.1 mM, 1 month under liquid nitrogen) was at least 0.8; at T2R16 [5] (Gα-T2R16 stable expression cell line (pEAK10), salicin 1 mM, 1 month under liquid nitrogen) it was at least 0.8; at T2R16 [5] (comparative Double stable cell line (Gα16/Gαgust43+T2R16), salicin 0.1 mM), at most 0.4; on T2R16 [5] (comparative Double stable cell line (Gα16/Gαgust43+T2R16), salicin 1 mM), “less than 0.6”.
